These results are taken from US20250090576A1, “METHODS FOR TREATING NONTUBERCULOUS MYCOBACTERIA DISEASES” (Microbion Corporation, priority 2022, published 2025).

Data set [1] has as its system M. abscessus cystic fibrosis patient strain 00703 in THP-1 macrophages. Briefly: Mycobacterial survival (CFU) in infected THP-1 macrophages. It is filed as cell-based. The conditions noted are these: CF patient strain 00703; after 3 days; drugs at MIC. The protocol: (§1) THP-1 macrophages were differentiated with 50 ng/ml PMA for 24 hours, followed by 24 hours in media prior to infection. Differentiated THP-1 macrophages were either infected with M. avium strains or M. abscessus strains for 1 hour with an multiplicity of infection (MOI) of 5 or uninfected. Cells were washed twice, followed by 1 hour of antibiotic treatment with 200 μg/ml of amikacin to remove extracellular bacteria. After the antibiotic step, cells were washed once more and BisEDT (BIZ) or amikacin was added once to selected wells (see in vitro doses below).
(§2) The treatments included: vehicle, amikacin, Soluble BisEDT (S Biz), Insoluble BisEDT (I Biz), and amikacin+BisEDT. The time points for sample preparation were 72 h for M. abscessus strains and 4- and 7-days post infection for M. avium strains. At the indicated timepoints cell media was removed and replaced with 400 ul of 0.1% triton x-100 in H2O for lysis. Wells were pipetted 25 times to disrupt cells then diluted and plated for CFU enumeration.

Data set [2] relates to M. abscessus cystic fibrosis patient strain 01715 in THP-1 macrophages. The description is as above. It is filed as cell-based. The note with it: CF patient strain 01715; after 3 days; drugs at MIC. How it is done: as §1, §2
The subject of data set [3] is M. abscessus strain 19977 in THP-1 macrophages. The data set is described as above. It is filed as cell-based. The conditions noted are these: after 3 days, drugs at MIC. How it is done:
as §1, §2

Data set [4] deals with CF patient strain 00133 in THP-1 macrophages. The data set is described as above. The note with it: amikacin-resistant CF patient strain 00133; each of the BisEDT formulations; 4 and 7 days. It is filed as cell-based, M. avium. The protocol: as §1, §2
For data set [5], the system named is M. abscessus strains in THP-1 macrophages. Briefly: Infected THP-1 macrophages, summary over strains. It is filed as cell-based. The note with it: 3 days post-treatment. How it is done:
as §1, §2

In data set [6] the test system is three clinical isolates of M. avium in macrophages. Kind of data set: Infected THP-1 macrophages, summary over strains. It is filed as cell-based. The conditions noted are these: three clinical isolates of M. avium incl. amikacin-resistant isolate. The protocol: as §1, §2
The test system of data set [7] is M. abscessus in THP-1 macrophages. Kind of data set: TEM of infected THP-1 macrophages (mechanism of action). It is filed as cell-based. The note with it: 4 μg/ml insoluble BisEDT; 24 h and 48 h. The protocol:
(§3) THP-1 macrophages were differentiated with 50 ng/ml PMA for 24 hours, followed by 24 hours in media prior to infection. Differentiated THP-1 macrophages were infected with M. avium or M. abscessus for 1 hour with a multiplicity of infection (MOI) of 10. Infected cells were washed twice, followed by 1 hour of antibiotic treatment with 200 μg/ml of amikacin to remove extracellular bacteria. After the antibiotic step, cells were washed once more and 4 μg/ml insoluble BisEDT (BIZ) was added to selected wells. The treatments included: (1) untreated, (2) untreated+infected with MAH 104, (3) untreated+infected with M. abscessus, (4) BIZ treated, (5) BIZ treated+infected with MAH 104, and (6) BIZ treated+infected with M. abscessus. The time points for sample preparation were 24 h and 48 h.p.i. Cells were not washed prior to transmission electron microscopy TEM sample preparation, to preserve any extracellular bacteria that may have been present. Cells were detached by treatment with 5 mM EDTA for […], quenched with 1×HBSS, and suspended in fixative buffer with 2.5% glutaraldehyde, 1% formaldehyde, and 0.1 M sodium cacodylate for 24 hours prior to submission to the electron microscopy facility for processing. Samples were sectioned, dehydrated, and visualized by a FEIT Titan 80-200 TEM/STEM microscope.

Data set [8] relates to M. avium (MAH 104) in THP-1 macrophages. The description is as above. It is filed as cell-based. The note with it: 4 μg/ml insoluble BisEDT; 24 h and 48 h. The protocol:
as §3

In data set [9] the test system is M. abscessus strain 19977. Briefly: Chronic M. abscessus lung infection in SCID/Beige mice, inhalation treatment 28 days. The note with it: for CFU count in lung homogenates, effect in words: inhaled. It is filed as in vivo. The protocol:
A total of sixty female SCID/Beige mice between 6-8 weeks of age were used. Mice were placed up to 4 animals per cage and allowed 1 week of acclimation prior to infection.
Inoculums of M. abscessus strain 19977 (MAB) used in this study were made from highly virulent frozen stocks with low passage numbers. Bacteria were allowed to grow to log phase after 4 days on 7H10 media agar plates at 37° C. Once confluent, inoculums were made by suspending bacteria at 10^9 in Hank's balanced salt solution (HBSS) as determined by optical density (O.D.) and further quantified by serial dilution to determine the CFU/mL of suspension. At this higher concentration of bacteria, only 20 μL of inoculum was necessary to deposit […] bacteria per mouse.
On the day of infection mice were anesthetized with isoflurane by the drop jar method. Mice were scruffed in a standard one-handed grip and the nose of the mouse is held of a tube containing gauze containing a small amount of isoflurane. Mice were monitored for breathing and once rapid breaths have slowed down initially the mouse is removed from direct anesthesia and 20 μL of bacterial suspension was deposited on the left nostril. The mice then slowly breath in the droplet. Each mouse was then held in hand until complete consciousness was obtained and then the mouse was replaced into its home cage. After infection was initiated, 3 weeks were allowed to pass in order to allow the bacteria to establish a chronic lung pathology for eventual treatment.
After establishing each infection, 12 mice were euthanized the day before treatment began to determine the baseline bacterial load. Mice were euthanized using CO2 in accordance with the recommendations of the Guide for the Care and Use of Laboratory Animals (NRC 2011). Lungs and spleens were collected and homogenized then serial diluted for CFU enumeration.
A nose-only inhalation exposure chamber from CH technologies was used for this experiment. Mice were split into four treatment groups, Vehicle (buffer containing no BisEDT), amikacin (100 μg/kg/day), BisEDT “low” (200 μg/kg/day), and BisEDT “high” (1000 μg/kg/day). Each treatment group consisted of 12 mice. Ten of these mice were used for CFU determination and two mice are used for histology/pathology/lung pharmacokinetics. Treatment was conducted 6 days a week over the course of 28 days total. To create the correct level of deposited dose of each drug tested, 10 mL of test article were made. Amikacin in HBSS at 20 mg/mL was made and stored at 4° C. until needed. […]
After 28 days of treatment with BisEDT, animals were euthanized by Co2 and secondary cardiac puncture to collect whole blood for quantitation of BisEDT concentration. […] CFUs were determined after serial dilution. […]

In data set [10] the test system is M. abscessus from lung homogenates. Kind of data set: Resistance plating of treated mouse lung homogenates on agar with 1 μg/ml BisEDT. It is filed as cell-based. The note with it: mice treated with BisEDT for 28 days. The protocol: Lung homogenates from the M. abscessus […] infection were thawed from frozen at 37° C. for 2 hours. To reduce the effect of the Dey-Engley deactivation buffer, mouse homogenates were diluted 1:10 in water before replating samples onto 7H10 agar plates containing 1 μg/ml BisEDT (MIC level). Once plated samples were incubated at 37° C. over 3 days and plate colonies were counted to determine CFUs of resistance.
Colony forming units were compared from the initial plating with no BisEDT in the agar plates; to replating on agar plates containing 1 μg/mL BisEDT.

Data set [11] has as its system M. abscessus isolates from murine lung homogenates. Kind of data set: MIC analysis of select bacterial isolates from murine lung homogenates. The note with it: isolates from treated mouse lungs. It is filed as cell-based.
The nature of data set [12]: Earlier 28-day tolerability work on rats. The conditions noted are these: 28 days, doses as high as.

In the case of `C1C[S][Bi]([S]CC[S][Bi]2[S]CC[S]2)[S]1` [BisEDT, bismuth-1,2-ethanedithiol], the “mycobacterial survival (CFU, bacterial load) in THP-1 macrophages, in words” value in data set [1] was “greatly reduced bacterial load in macrophages”; in [2], “greatly reduced bacterial load in macrophages”; in data set [3], “reduced bacterial loads in THP-1 cells”. Also, the “mycobacterial survival (CFU) in THP-1 macrophages, in words” value in data set [4] is reported as “bacteriostatic effect”. In addition, the “effect in infected macrophages, in words” value is given as “bactericidal by itself” in [5] and “bactericidal” in data set [6]. For the same compound, the “TEM observation on mycobacteria cell wall” value in data set [7] was “loss of the integrity of the polar region initially, and the whole cell wall in a more advanced stage”; in data set [8], “loss of the integrity of the polar region initially, and the whole cell wall in a more advanced stage”. The “lung CFU response, in words” value in data set [9] (200 and 1000 μg/kg/day inhaled) is recorded as “dose-dependent response”. Moreover, the “tolerability in infected mice” value in data set [9] (200 and 1000 μg/kg/day inhaled, mice responsive, normal weight range) is “well tolerated”. The “CFU count in lung homogenates, effect in words” value was “bactericidal” in data set [9] (BisEDT high, 1000 μg/kg) and “bacteriostatic effect” in data set [9] (BisEDT low, 200 μg/kg). Besides, in data set [10], the “development of resistance, in words” value is recorded as “little development of resistance”. Further, the “MIC of select isolates, in words” value in data set [11] was “did not show a change in resistance”. The “dose with high tolerability, without adverse effects” value in data set [12] turned out to be 59 µg/kg/day.
